What was measured:
[1] = biological target: T1, human CaSR (Homo sapiens, UniProt P41180); assay: Functional whole cell assay (IP1 accumulation, IP-One htrf) in CHO-K1 cells stably expressing human CaSR; assay type: cell-based; details: 2 mM Ca2+, 1 hour at 37° C., IP1 readout, read-out: Functional whole cell assay (modulation of human CaSR)
T1 construct: The ORF coding for the human CaSR (genebank: NM_000388) was acquired from Invitrogen Corp, USA
T1 sequence (P41180 20-1078): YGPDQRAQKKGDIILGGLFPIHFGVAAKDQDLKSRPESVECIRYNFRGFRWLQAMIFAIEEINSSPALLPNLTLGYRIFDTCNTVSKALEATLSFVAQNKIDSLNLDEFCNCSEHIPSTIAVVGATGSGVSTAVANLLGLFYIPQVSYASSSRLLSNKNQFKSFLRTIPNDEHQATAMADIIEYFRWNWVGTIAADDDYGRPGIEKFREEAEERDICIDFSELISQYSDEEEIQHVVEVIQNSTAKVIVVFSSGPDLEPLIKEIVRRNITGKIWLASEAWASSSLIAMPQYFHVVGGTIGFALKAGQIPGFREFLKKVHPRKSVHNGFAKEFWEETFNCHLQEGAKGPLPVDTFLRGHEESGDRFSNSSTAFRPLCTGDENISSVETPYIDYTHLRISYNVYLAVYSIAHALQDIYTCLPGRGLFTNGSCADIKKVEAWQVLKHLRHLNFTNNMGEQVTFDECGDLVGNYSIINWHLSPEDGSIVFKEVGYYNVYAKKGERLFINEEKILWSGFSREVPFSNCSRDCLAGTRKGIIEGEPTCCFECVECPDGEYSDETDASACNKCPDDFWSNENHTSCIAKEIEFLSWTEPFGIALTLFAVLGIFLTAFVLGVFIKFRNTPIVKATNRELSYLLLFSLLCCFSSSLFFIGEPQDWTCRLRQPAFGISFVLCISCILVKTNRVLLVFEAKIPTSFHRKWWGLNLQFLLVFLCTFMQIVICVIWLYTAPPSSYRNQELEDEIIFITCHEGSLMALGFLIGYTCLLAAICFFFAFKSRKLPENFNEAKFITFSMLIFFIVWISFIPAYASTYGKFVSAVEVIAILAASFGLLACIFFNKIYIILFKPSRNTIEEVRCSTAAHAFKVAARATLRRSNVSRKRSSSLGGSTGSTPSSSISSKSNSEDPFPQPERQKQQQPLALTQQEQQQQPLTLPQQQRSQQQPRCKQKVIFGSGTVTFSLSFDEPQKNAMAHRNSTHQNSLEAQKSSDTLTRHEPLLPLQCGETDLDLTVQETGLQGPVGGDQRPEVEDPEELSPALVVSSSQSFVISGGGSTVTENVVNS
Text: The assay investigates a compound's functional ability to act as a biological positive modulator on the human CaSR. Activation of the receptor expressed on CHO-K1 cells is detected through the G alpha q pathway, the activation of phospholipase C and the accumulation of intracellular inositol phosphate (IP) as described earlier [Sandrine Ferry, Bruno Chatel, Robert H. Dodd, Christine Lair, Danielle Gully, Jean-Pierre Maffrand, and Martial Ruat. Effects of Divalent Cations and of a Calcimimetic on Adrenocorticotropic Hormone Release in Pituitary Tumor Cells. BIOCHEMICAL AND BIOPHYSICAL RESEARCH COMMUNICATIONS 238, 866-873 (1997)]. The human CaSR is stably expressed on a CHO-K1 cell clone, stimulated with a basal level of calcium and challenged with the tested compound. The level of IP1 is determined using the IP-One htrf kit (Cisbio, France). CHO-K1 cells not transfected with the CaSR fail to elicit an IP1 response upon calcium and/or compound stimulation.
The ORF coding for the human CaSR (genebank: NM_000388) was acquired from Invitrogen Corp, USA and subsequently cloned into the mammalian expression vector pCDA3.1.
CHO-K1 cells were transfected using Lipofectamine according to manufacturer's protocol (400.000 cells/well were seeded in a 6-well plate and transfected after 24 hours using 2 μg DNA and 5 μl lipofectamine). After another 24 hours the cells were detached, seeded and subjected to 1 mg/ml of G-418. Following 7 days growth single clones were picked, the CaSR expression evaluated using the 5C10 antibody against CaSR, the clones with the highest expression were selected and tested for functional response. The preferred clone was continuously cultured according to standard procedures described in ATCC (American Type Culture Collection) protocols for CHO-K1 with the addition of 500 μg/ml G-418.
On the assay day cells were harvested and resuspended to 13*10^6 cells/ml in stimulation buffer (containing: Hepes 10 mM, MgCl2 0.5 mM, KCl 4.2 mM, NaCl 146 mM, glucose 5.5 mM, LiCl 50 mM at pH 7.4). Five μl cell solution were pipetted into a well (white 384-well plate, Perkin Elmer Optiplate) followed by 5 μl compound diluted in a Ca^2+-containing (to the final concentration of 2 mM) buffer. After compound stimulation for 1 hour at 37° C. 10 μl of IP-One assay reagents were added and incubated for another 1 hour at room temperature. Finally the plate was read using a Perkin Elmer EnVision, according to protocol supplied by the IP-One assay kit manufacturer. The FRET ratio was calculated by dividing the 665 nm emission signal with that of the 615 nm.

[2] = Clearance in rat hepatocytes; assay type: in vitro ADME; details: test compound 0.5 μM, 1×10^6 cells/mL, scaled to rat body weight
Procedure: Test compound concentration is 0.5 μM and cell concentration is 1×10^6 cells/mL in the incubation. The described method is manual and is based on a 24-well format.
The liver is collected from a male Spraque-Dawley rat. One liver lobe is cut off and flushed with various buffers to loosen the cells. The cell suspension is washed and centrifuged, and the cell density is adjusted to 1.2×10^6 cells/mL with Krebs-Henseleit buffer, pH 7.4, containing 0.2% bovine serum albumin (BSA). Only cell suspensions with viability above 80% are used.
A volume of 315 μL cell suspension per well is added to 24-well plates and preincubated at 37° C. for 20 min. Test compound (0.5 μM) is added, and the mixture is incubated for 20 minutes. Incubations are run in duplicate. Samples are withdrawn at predetermined stop times and mixed with methanol containing internal standard (IS) to terminate all enzyme activity and precipitate proteins.
The percentage of organic solvent in the incubations is less than 1%. Careful inspections of reagents are performed prior to the start of any experiment to ensure all reagents are in solution.
The 24-well plates are centrifuged. Test compound depletion, using a compound specific LC/MS/MS method, is determined. The logarithm of the peak area ratios of test compound to internal standard (IS) versus incubation time is plotted in a graph
The rate constant (k) (min^−1) of test compound depletion is calculated from the linear part of the curve and the half-time (t1/2) in minutes can be calculated from the rate constant (Eq. 1). t1/2=(ln 2)/k (Eq. 1)
Intrinsic clearance (Clint) (mL/min/10^6 cells) is calculated from: Clint=k/c (Eq. 2) where c is the cell concentration in 10^6 cells/mL.
Conversion to apparent clearance (Clapp) (mL/min/kg) is done by Eq. 3: Clapp=Clint×a×b/d (Eq. 3) where a, b and d are the scaling factors for normalizing Clint to rat body weight.
The following rat scaling factors are used: • a: 120 (cells/liver weight (10^6 cells/g)) • b: 10 (liver weight (g)) • d: 0.25 (body weight (kg))
Apparent clearance is a measure of compound elimination from the liver. Apparent clearance below approximately 25 mL/min/kg rat body weight (corresponding to extraction ratio of approx. 30%) is considered as low clearance (high metabolic stability). Apparent clearance above approximately 165 mL/min/kg rat body weight (corresponding to extraction ratio of approx. 75%) is considered as high clearance (low metabolic stability).

Row | EC50 [1] | Compound | Clearance (Clapp) in rat hepatocytes [2]
1 | < 500 nM | COc1cc([C@@H](C)NC2CC[C@H](c3ccc(OCC(=O)O)c(C(F)(F)F)c3)C2)ccc1F (mixture of isomers) [Compound 1021, 2-[4-[(1S)-3-[[(1R)-1-(4-fluoro-3-methoxy-phenyl)ethyl]amino]cyclopentyl]-2-(trifluoromethyl)phenoxy]acetic acid] | A (A: <30 mL/min/kg)
2 | < 500 nM | COc1cc([C@@H](C)NC2CC[C@@H](c3cc(OCC(=O)O)cc(C(F)(F)F)c3)C2)ccc1F (single isomer, unassigned) [Compound 1022] | A (A: <30 mL/min/kg)
3 | < 500 nM | C[C@@H](NC1CC[C@@H](c2cc(OCC(=O)O)cc(C(F)(F)F)c2)C1)c1cccc2ccccc12 (single isomer, unassigned) [Compound 1023] | B (B: 30-55 mL/min/kg)

Continued, compound first:

Row | Compound | EC50 [1] | Clearance (Clapp) in rat hepatocytes [2]
4 | C[C@@H](NC1CCC(c2ccc(CCC(=O)O)c(C(F)(F)F)c2)C1)c1cccc2ccccc12 (single isomer, unassigned) [Compound 1007] | < 500 nM | B (B: 30-55 mL/min/kg)
5 | COc1cc([C@@H](C)NC2CC[C@H](c3ccc(CCC(=O)O)c(C(F)(F)F)c3)C2)ccc1F (single isomer, unassigned) [Compound 1012] | < 500 nM | A (A: <30 mL/min/kg)
